Values of other authors as cited in patent US12447129B2, “Solid dosage form production” (University of Lancashire, priority 2014, dated 2025).

Legend:
[1] = plasticiser alone; input to the calculation
[2] = at 25° C.

Row | Compound | Tg (K) plasticiser [1] | water sol. [2]
1 | CCOC(=O)CC(O)(CC(=O)OCC)C(=O)OCC [TEC] | 203.55 K | –
2 | CC(=O)OCC(COC(C)=O)OC(C)=O [Triacitin] | 193.7 K | –
3 | Cn1c(=O)c2[nH]cnc2n(C)c1=O [theophylline] | – | 7360 mg/L
